We go through one compound from ChEMBL document CHEMBL3853318, “Structure-Based Optimization of Potent, Selective, and Orally Bioavailable CDK8 Inhibitors Discovered by High-Throughput Screening” (J Med Chem, 2016).

In series [1] the target is CDK8/Cyclin C (Homo sapiens, UniProt P49336). The series can be described thus: Inhibition of Alexa647 tracer binding to full length recombinant human His-tagged CDK8/cyclin C expressed in Baculovirus expression system preincubated for 20 mins followed by tracer addition and incubated in dark for 60 mins by FRET-based Lanthascreen assay. (TR-FRET usually uses a lanthanide donor and a delayed reading to cut background.)

The target of series [2] is Cyclin-dependent kinase 8 (Homo sapiens, UniProt P49336). Nature of the series: Inhibition of CDK8 in human 7dF3 cells preincubated for 2 hrs followed by beta-oestradiol addition measured after 24 hrs by luciferase reporter gene assay. The format is cell-based. For orientation: In a reporter assay the amount or activity of a reporter protein is the signal.
A short description of series [3]: Intrinsic clearance in human liver microsomes at 1 uM preincubated for 5 mins followed by NADPH addition measured after 5 to 30 mins by LC-MS/MS analysis. The format is ADME. Conditions: read-out: CLH.
Series [4] can be described thus: Intrinsic clearance in rat liver microsomes at 1 uM preincubated for 5 mins followed by NADPH addition measured after 5 to 30 mins by LC-MS/MS analysis. The format is ADME. Conditions: read-out: CLH.
The nature of series [5]: Intrinsic clearance in mouse liver microsomes at 1 uM preincubated for 5 mins followed by NADPH addition measured after 5 to 30 mins by LC-MS/MS analysis. The format is ADME. The following applies: read-out: CLH. (Liver microsomes are vesicles of endoplasmic reticulum, rich in cytochrome P450 enzymes.)
A short description of series [6]: Apparent permeability from apical to basolateral side in human Caco2 cells at 1 uM after 2 hrs by Transwell assay. Conditions: Caco-2. The format is ADME, cell-based.
Series [7] can be described thus: Efflux ratio of permeability in human Caco2 cells at 1 uM after 2 hrs by Transwell assay. The format is ADME, cell-based. The following applies: Caco-2.
Series [8] deals with T1, Tyrosine-protein kinase JAK1 (Homo sapiens, UniProt P23458). Nature of the series: Inhibition of JAK1 (unknown origin).
For series [9], the target named is T2, Tyrosine-protein kinase JAK2 (Homo sapiens, UniProt O60674). Nature of the series: Inhibition of JAK2 (unknown origin).
Series [10] deals with T3, Tyrosine-protein kinase JAK3 (Homo sapiens, UniProt P52333).
T3 sequence (P52333 whole entry): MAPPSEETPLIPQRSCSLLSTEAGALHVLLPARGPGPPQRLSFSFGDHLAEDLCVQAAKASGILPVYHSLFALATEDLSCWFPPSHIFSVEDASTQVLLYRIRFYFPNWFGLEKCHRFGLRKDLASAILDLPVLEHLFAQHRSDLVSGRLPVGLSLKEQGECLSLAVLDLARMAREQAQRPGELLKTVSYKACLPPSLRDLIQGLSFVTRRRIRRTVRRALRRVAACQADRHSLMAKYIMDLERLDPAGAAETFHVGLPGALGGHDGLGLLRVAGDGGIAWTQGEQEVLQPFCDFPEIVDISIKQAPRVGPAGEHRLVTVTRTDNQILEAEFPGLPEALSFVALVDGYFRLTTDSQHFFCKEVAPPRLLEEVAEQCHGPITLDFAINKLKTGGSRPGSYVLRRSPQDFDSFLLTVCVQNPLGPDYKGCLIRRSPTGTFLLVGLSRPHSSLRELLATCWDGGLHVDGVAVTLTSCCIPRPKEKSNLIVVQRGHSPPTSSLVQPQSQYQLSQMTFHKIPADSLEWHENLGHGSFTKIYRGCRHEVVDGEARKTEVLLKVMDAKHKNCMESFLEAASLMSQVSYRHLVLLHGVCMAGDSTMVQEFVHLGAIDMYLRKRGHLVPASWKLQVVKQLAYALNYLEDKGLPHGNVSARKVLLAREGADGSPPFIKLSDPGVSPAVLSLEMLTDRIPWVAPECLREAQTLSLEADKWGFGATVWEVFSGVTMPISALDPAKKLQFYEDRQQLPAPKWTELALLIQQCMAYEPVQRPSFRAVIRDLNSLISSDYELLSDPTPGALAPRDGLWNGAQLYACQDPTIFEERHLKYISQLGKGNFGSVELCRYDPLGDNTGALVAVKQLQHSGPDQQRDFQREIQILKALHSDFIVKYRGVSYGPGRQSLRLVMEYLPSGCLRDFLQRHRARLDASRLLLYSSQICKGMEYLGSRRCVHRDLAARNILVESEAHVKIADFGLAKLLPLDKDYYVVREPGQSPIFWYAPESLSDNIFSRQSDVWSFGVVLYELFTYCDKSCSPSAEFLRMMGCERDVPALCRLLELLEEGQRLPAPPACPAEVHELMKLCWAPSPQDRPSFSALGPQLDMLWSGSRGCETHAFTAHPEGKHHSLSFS
The series can be described thus: Inhibition of JAK3 (unknown origin).

Series [11] concerns the target T4, Rho-associated protein kinase 2 (Homo sapiens, UniProt O75116). The series can be described thus: Inhibition of ROCK-2 (unknown origin).
Target sequence in this assay (O75116 whole entry): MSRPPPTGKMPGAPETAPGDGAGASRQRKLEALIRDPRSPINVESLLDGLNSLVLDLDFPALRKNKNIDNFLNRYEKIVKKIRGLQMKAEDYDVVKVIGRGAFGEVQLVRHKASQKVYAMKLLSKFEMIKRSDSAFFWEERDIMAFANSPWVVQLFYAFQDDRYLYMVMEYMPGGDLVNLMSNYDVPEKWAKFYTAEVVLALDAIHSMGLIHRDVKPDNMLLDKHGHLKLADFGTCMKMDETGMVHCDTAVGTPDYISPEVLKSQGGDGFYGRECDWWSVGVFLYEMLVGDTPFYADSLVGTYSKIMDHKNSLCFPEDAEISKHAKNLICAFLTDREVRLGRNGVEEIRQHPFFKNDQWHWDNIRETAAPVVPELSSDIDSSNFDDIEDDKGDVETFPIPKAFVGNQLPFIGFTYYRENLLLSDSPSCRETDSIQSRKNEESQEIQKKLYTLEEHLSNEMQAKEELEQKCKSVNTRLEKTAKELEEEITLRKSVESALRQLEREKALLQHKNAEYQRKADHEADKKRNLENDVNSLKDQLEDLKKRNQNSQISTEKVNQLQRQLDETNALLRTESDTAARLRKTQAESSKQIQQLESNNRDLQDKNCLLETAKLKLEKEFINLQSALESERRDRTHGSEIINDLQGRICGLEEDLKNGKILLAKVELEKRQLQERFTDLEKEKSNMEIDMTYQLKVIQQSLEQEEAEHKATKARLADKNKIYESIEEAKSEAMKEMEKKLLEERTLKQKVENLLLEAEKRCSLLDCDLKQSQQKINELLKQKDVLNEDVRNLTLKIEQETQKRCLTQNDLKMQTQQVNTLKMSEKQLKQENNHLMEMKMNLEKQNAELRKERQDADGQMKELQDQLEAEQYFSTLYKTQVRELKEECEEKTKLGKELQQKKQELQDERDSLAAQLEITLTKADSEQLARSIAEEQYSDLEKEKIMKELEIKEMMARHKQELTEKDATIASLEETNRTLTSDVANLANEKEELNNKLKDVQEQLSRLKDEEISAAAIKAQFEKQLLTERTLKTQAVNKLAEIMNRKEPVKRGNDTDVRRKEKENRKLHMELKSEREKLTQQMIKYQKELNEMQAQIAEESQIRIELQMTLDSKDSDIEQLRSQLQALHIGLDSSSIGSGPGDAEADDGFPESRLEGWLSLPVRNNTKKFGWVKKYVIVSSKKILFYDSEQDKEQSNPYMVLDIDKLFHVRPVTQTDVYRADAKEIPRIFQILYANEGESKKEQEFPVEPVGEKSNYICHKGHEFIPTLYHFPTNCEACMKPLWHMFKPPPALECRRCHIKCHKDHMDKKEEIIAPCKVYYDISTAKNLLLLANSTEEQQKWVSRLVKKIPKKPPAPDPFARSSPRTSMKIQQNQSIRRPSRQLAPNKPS
Series [12] addresses T5, Non-receptor tyrosine-protein kinase TYK2 (Homo sapiens, UniProt P29597). Nature of the series: Inhibition of TYK2 (unknown origin).
The target of series [13] is T1, Tyrosine-protein kinase JAK1. Nature of the series: Inhibition of JAK1 (unknown origin) at 1 uM relative to control.
The target in series [14] is T2, Tyrosine-protein kinase JAK2. The series can be described thus: Inhibition of JAK2 (unknown origin) at 1 uM relative to control.
For series [15], the target named is T6, Tyrosine-protein kinase JAK3 (Homo sapiens) (UniProt P52333).
T6 sequence (whole entry): T3 sequence (P52333 whole entry)
The series can be described thus: Inhibition of JAK3 (unknown origin) at 1 uM relative to control.

The target of series [16] is T4, Rho-associated protein kinase 2. The series can be described thus: Inhibition of ROCK-2 (unknown origin) at 1 uM relative to control.
Target sequence in this assay (O75116 whole entry, looked up): as the sequence (O75116 whole entry) above
Series [17] addresses T5, Non-receptor tyrosine-protein kinase TYK2. Nature of the series: Inhibition of TYK2 (unknown origin) at 1 uM relative to control.

pIC50: −log10 of the molar value.

T1 sequence (P23458 whole entry): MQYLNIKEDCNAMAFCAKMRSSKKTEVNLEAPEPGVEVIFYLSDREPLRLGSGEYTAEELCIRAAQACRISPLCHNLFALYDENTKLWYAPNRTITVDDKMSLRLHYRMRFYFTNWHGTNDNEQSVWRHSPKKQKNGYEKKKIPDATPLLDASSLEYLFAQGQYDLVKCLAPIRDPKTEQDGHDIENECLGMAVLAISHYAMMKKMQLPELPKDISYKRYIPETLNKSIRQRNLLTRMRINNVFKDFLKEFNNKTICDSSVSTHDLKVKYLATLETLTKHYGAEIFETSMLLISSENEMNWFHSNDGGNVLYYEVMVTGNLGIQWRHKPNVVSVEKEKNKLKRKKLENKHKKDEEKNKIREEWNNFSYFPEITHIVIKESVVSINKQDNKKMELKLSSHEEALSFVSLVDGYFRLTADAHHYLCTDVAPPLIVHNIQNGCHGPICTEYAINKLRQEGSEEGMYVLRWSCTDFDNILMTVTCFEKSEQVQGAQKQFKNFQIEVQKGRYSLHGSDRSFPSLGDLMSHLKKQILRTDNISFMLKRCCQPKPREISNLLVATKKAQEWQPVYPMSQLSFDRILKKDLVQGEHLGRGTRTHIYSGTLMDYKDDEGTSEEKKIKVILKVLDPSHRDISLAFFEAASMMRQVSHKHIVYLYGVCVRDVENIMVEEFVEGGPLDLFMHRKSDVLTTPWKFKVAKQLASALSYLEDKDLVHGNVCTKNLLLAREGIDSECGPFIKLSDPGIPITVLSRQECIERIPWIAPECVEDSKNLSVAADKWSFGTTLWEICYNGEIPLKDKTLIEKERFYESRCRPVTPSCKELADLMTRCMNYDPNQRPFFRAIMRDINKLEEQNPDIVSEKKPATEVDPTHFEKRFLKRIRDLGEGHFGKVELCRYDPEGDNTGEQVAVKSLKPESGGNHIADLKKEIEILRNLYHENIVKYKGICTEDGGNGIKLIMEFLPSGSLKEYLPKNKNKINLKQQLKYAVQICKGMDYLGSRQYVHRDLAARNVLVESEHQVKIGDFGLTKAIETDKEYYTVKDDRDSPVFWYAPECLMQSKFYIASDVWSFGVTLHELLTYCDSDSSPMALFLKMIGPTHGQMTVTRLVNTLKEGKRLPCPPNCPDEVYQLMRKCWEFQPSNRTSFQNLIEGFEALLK
T2 sequence (O60674 whole entry): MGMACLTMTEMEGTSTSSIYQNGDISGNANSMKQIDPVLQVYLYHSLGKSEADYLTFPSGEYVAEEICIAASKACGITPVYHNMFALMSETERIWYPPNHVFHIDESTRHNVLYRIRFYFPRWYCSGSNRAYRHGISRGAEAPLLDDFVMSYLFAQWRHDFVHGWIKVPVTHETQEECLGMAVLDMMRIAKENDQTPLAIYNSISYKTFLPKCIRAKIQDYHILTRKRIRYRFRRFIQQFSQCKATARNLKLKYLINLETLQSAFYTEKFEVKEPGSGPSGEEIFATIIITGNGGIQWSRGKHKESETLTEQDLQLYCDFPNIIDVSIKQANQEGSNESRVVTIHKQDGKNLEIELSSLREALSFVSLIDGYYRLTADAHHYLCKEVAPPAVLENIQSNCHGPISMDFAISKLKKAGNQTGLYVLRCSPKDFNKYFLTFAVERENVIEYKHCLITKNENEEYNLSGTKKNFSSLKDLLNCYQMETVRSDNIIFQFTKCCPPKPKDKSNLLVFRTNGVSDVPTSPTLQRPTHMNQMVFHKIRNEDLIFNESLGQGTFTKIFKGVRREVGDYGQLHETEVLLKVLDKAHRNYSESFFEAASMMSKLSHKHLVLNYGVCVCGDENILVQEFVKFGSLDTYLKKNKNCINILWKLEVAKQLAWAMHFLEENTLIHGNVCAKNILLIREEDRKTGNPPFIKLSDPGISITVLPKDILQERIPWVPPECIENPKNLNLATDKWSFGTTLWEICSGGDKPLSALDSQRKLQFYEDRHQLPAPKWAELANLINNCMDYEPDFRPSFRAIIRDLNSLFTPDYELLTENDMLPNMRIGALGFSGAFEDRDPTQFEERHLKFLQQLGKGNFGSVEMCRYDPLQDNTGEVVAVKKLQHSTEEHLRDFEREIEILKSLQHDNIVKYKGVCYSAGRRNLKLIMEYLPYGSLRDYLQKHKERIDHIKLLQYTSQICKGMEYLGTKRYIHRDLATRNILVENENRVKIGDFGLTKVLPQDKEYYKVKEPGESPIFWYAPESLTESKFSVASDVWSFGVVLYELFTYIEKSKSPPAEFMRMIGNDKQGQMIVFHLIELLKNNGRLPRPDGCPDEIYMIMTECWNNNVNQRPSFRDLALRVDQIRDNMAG
T5 sequence (P29597 whole entry): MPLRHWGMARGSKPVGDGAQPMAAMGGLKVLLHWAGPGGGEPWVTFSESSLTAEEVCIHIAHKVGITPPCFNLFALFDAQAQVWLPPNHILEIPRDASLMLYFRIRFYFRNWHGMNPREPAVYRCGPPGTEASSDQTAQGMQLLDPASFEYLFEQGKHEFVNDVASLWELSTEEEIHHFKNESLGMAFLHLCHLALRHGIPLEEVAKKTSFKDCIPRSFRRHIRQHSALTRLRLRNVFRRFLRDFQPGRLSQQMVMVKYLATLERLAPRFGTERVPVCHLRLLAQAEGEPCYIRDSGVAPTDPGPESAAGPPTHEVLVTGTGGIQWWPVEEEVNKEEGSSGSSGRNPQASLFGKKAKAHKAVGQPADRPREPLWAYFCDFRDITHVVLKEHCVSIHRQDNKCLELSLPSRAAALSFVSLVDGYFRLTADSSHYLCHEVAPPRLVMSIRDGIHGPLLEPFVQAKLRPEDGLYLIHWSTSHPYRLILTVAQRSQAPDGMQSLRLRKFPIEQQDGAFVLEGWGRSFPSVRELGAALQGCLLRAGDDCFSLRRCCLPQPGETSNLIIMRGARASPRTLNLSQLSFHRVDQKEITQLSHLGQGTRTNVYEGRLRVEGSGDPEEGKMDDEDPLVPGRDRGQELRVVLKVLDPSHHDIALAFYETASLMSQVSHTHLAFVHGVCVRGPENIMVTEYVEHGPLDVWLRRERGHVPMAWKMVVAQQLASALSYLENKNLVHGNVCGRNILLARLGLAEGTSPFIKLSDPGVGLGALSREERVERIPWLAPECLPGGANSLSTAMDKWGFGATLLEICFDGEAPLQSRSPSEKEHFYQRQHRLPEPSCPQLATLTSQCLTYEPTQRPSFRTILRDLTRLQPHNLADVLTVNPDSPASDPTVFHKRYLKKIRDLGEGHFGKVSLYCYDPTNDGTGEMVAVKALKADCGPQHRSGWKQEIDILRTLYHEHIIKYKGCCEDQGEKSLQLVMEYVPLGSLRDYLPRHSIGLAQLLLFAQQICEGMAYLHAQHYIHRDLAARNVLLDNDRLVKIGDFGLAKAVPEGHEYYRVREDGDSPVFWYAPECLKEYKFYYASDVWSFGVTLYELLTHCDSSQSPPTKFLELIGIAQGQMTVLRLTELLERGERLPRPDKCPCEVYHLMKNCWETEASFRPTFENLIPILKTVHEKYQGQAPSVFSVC

One may read the pIC50 as the IC50 on a negative log10 scale, so that one unit is a factor of ten. In general, Papp A→B refers to the apparent permeability from the apical to the basolateral side of a cell layer. For orientation: efflux ratio means a quotient of directional permeabilities that is used to spot active efflux. By inhibition is commonly meant the drop in the measured response relative to a control, in per cent. The low end stands for a response near the control, the high end for a response far below the control. Turning to `Nc1n[nH]c2ccc(C(=O)N3CCC[C@H]3c3ccc(Cl)cc3)cc12`, the pIC50 in series [1] was 8.31; in [2], 7.55; in series [8], 7.05; in [9] it was 6.54; in series [10] it was 6.66; in series [11], 5.88. This compound also gave a negative logarithm of the IC50 (pIC50) in series [12] of 6.55. Besides, the microsomal CLint at 1 µM in series [3] is 23 µL/min/mg; in [4], 10 µL/min/mg; in series [5], 10 µL/min/mg. In [6], the Papp A→B at 2 h, 1 µM was determined as 33.7 ×10⁻⁶ cm/s. The efflux ratio at 2 h, 1 µM in [7] was 2.2. In addition, the inhibition turned out to be 86% in series [13]; 84% in series [14]; 79% in [15]; 42% in series [16]; 70% in series [17].
